What was measured:
[1] = system: human endothelial progenitor cells (EPC); test: short-term application of paclitaxel to human endothelial progenitor cells; type: cell-based; details: effect dose and time dependent
Source text: (§1) This effect is dose and time dependent; rising concentrations in paclitaxel and longer application show higher inhibition of cell proliferation and migration.

[2] = system: smooth muscle cells (SCM); test: short-term application of paclitaxel to smooth muscle cells; type: cell-based, human; details: effect dose and time dependent
Source text: as §1

How did the “apoptosis, inhibition of cell proliferation and migration” value [1] turn out when `CC(=O)O[C@H]1C(=O)[C@@]2(C)[C@H]([C@H](OC(=O)c3ccccc3)[C@]3(O)C[C@H](OC(=O)[C@H](O)[C@@H](NC(=O)c4ccccc4)c4ccccc4)C(C)=C1C3(C)C)[C@]1(OC(C)=O)CO[C@@H]1C[C@@H]2O` [paclitaxel] was run?
Its value is “leads to apoptosis and therefore inhibition of cell proliferation and migration”.

And the “apoptosis, inhibition of cell proliferation and migration” value [2]?
The value was “leads to apoptosis and therefore inhibition of cell proliferation and migration”.

Reference: patent US20110046724A1, “Expansible Biocompatible Coats Comprising a Biologically Active Substance” (Avidal Vascular GMBH, priority 2008, published 2011)
